According to publication PMC7932537, “Quantitative profiling of protease specificity” (PLoS Computational Biology, 2021):

Experiments:
MMP-9 [1] = experiment: Substrate phage display with NGS: relative probability (RP) of P3-P1' tetramer clusters; format: biochemical, human; details: for corresponding MMP9 relative probability (RP): MMP2 tetramers from unique substrates, RP of same tetramer for MMP9
MMP-2 [2] = target: T1, MMP-2 (Homo sapiens, UniProt P08253); experiment: K(obs) of individual phage substrates (set of 1369); format: biochemical; details: MMP2; individual phage substrate from the set of 1369 peptides; hyphen in the sequence marks the cleavage position
T1 sequence (P08253 110-660): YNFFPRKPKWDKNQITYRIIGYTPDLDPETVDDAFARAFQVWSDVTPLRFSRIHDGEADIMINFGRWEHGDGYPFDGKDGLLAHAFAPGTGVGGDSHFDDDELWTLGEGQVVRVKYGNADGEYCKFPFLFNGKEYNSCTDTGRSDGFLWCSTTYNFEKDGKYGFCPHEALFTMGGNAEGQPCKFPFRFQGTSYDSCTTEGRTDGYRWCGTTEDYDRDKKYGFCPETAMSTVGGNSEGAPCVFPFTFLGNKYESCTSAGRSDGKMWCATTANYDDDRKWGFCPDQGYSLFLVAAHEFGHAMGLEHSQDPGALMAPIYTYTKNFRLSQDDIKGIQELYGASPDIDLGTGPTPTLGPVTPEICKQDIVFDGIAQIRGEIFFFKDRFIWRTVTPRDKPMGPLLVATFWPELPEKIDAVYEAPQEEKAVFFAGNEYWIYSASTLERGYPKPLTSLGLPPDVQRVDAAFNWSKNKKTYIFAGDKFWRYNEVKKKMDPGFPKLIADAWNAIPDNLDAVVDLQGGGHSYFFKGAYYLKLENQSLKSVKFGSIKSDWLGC

MMP-9 [3] = target: MMP-9 (Homo sapiens, UniProt P14780); experiment: as above; format: biochemical; details: MMP9; individual phage substrate of the set of 1369 peptides; dash in sequence marks cleavage position
MMP-9 (Homo sapiens, UniProt P14780), sequence (P14780 94-707): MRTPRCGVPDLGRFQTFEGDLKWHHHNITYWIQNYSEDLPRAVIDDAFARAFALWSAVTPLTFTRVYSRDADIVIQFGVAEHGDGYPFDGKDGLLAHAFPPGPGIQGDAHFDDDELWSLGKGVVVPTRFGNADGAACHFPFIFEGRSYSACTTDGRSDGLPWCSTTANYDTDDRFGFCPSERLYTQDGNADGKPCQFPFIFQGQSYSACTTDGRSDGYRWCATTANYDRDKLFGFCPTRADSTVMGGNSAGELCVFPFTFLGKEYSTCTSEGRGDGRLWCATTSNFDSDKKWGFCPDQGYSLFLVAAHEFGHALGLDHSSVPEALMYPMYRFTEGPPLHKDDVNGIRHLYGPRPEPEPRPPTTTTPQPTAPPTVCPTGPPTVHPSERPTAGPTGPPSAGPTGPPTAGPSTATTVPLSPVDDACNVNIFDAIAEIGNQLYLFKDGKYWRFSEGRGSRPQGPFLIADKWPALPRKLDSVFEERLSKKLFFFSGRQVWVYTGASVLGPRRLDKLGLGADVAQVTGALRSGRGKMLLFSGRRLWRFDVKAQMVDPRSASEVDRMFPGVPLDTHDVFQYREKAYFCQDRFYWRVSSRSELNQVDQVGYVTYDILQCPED

MMP-2 [4] = experiment: Substrate phage display with NGS: relative probability (RP) of P3-P1' tetramer clusters; format: biochemical, human; details: for relative probability (RP) of matching tetramer: P3-P1' tetramer matching the MS detected MMP2 cleavage sequence, RP_above_4.5; for MMP2 relative probability (RP): MMP2 tetramers from unique substrates, unrounded values; for avg_RP: MMP2 - no binning, redundant tetramers have been averaged out
[5] = MMP9, RP of the substrate's P3-P1' tetramer, substrate phage display with NGS
[6] = MMP2, RP of matching P3-P1' tetramer, common set of MMP2-9 selectome, RP above KL threshold
[7] = RP of matching tetramer, common MMP2-9 selectome
[8] = MMP9, RP of matching P3-P1' tetramer, common set of MMP2-9 selectome
[9] = MMP9, RP of the P3-P1' tetramer matching the MS detected cleavage, RP above 4.7, substrate phage display with NGS
[10] = RP of matching tetramer, common MMP2-9 selectome, RP above KL threshold
[11] = RP of the P3-P1' tetramer cluster contained in the hexamer, 200 nM MMP-2, 2 h, 37°C, two rounds of selection
[12] = MMP9, RP of the P3-P1' tetramer contained in the hexamer substrate (substrate phage display, NGS)
[13] = RP of the P3-P1' tetramer, MMP2 substrate phage display/NGS, tetramers of physiologic MEROPS substrates common to MMP2 and MMP9
[14] = RP of the P3-P1' tetramer, MMP9 substrate phage display/NGS, tetramers of physiologic MEROPS substrates common to MMP2 and MMP9
[15] = RP according to MMP2, P3-P1' tetramer of unique physiologic MMP2 substrates from MEROPS
[16] = RP according to MMP9, P3-P1' tetramer of unique physiologic MMP9 substrates from MEROPS

## KIPSA-LTASG
MMP-9 [1]; [5]
  relative probability (RP): 47.6113
MMP-2 [2]
  Kobs: 12792.1 M⁻¹ s⁻¹
MMP-9 [3]
  Kobs: 9740.44 M⁻¹ s⁻¹

## SGVRA-VYSTA
MMP-9 [1]; [5]
  relative probability (RP): 25.1531
MMP-2 [2]
  Kobs: 3079.62 M⁻¹ s⁻¹
MMP-9 [3]
  Kobs: 12792.1 M⁻¹ s⁻¹

## GTPIE-LYTAS
MMP-9 [1]; [5]
  relative probability (RP): 35.3641
MMP-2 [2]
  Kobs: 8321.48 M⁻¹ s⁻¹
MMP-9 [3]
  Kobs: 9740.44 M⁻¹ s⁻¹

## ATPY
MMP-2 [4]; [6]
  relative probability (RP) (acc.to MMP2): 12.49
MMP-2 [4]
  relative probability (RP) of matching tetramer: 12.49
MMP-2 [4]; [7]
  relative probability (RP) (acc.to MMP2): 12.49
MMP-9 [1]; [8]
  relative probability (RP) (acc.to MMP9): 9.04
MMP-9 [1]; [9]
  relative probability (RP): 9.04
MMP-9 [1]; [10]
  relative probability (RP) (acc.to MMP9): 9.04

## PVAIPM
MMP-2 [4]; [11]
  relative probability (RP): 32.4892
MMP-9 [1]; [12]
  relative probability (RP): 44.9732

## GQPMNL
MMP-2 [4]; [11]
  relative probability (RP): 32.5586
MMP-9 [1]; [12]
  relative probability (RP): 48.9575

## VHPSAV
MMP-2 [4]; [11]
  relative probability (RP): 29.6865
MMP-9 [1]; [12]
  relative probability (RP): 36.5372

## PQGL
MMP-2 [4]; [13]
  relative probability (RP) (acc.to MMP2): 33.52
MMP-9 [1]; [14]
  relative probability (RP) (acc.to MMP9): 47.86

## PHNILS
MMP-2 [4]; [11]
  relative probability (RP): 24.3767
MMP-9 [1]; [12]
  relative probability (RP): 42.0557

## QQPSRL
MMP-2 [4]; [11]
  relative probability (RP): 31.7732
MMP-9 [1]; [12]
  relative probability (RP): 39.8157

## PVAV
MMP-2 [4]; [6]
  relative probability (RP) (acc.to MMP2): 27.53
MMP-2 [4]
  relative probability (RP) of matching tetramer: 27.53
MMP-2 [4]; [7]
  relative probability (RP) (acc.to MMP2): 27.53
MMP-9 [1]; [8]
  relative probability (RP) (acc.to MMP9): 32.82
MMP-9 [1]; [9]
  relative probability (RP): 32.82
MMP-9 [1]; [10]
  relative probability (RP) (acc.to MMP9): 32.82

## PGPIGW
MMP-2 [4]; [11]
  relative probability (RP): 31.1565
MMP-9 [1]; [12]
  relative probability (RP): 36.9425

## LSKI
MMP-2 [4]
  MMP2 relative probability (RP): 4.524
MMP-2 [4]; [15]
  Relative probability (RP) rank: 7909
  relative probability (RP): 4.52
MMP-2 [4]; [13]
  relative probability (RP) (acc.to MMP2): 4.52
MMP-9 [1]
  corresponding MMP9 relative probability (RP): 0.06898
MMP-9 [1]; [16]
  Relative probability (RP) rank: 65498
  relative probability (RP): 0.07
MMP-9 [1]; [14]
  relative probability (RP) (acc.to MMP9): 0.07

## PMDIHA
MMP-2 [4]; [11]
  relative probability (RP): 8.254
MMP-9 [1]; [12]
  relative probability (RP): 39.7367

## IGLM
MMP-2 [4]
  MMP2 relative probability (RP): 19.5116
MMP-2 [4]; [15]
  Relative probability (RP) rank: 1895
  relative probability (RP): 19.51
MMP-2 [4]; [13]
  relative probability (RP) (acc.to MMP2): 19.51
MMP-9 [1]
  corresponding MMP9 relative probability (RP): 2.913
MMP-9 [1]; [16]
  Relative probability (RP) rank: 7888
  relative probability (RP): 2.91
MMP-9 [1]; [14]
  relative probability (RP) (acc.to MMP9): 2.91

## GPALSY
MMP-2 [4]; [11]
  relative probability (RP): 14.6475
MMP-9 [1]; [12]
  relative probability (RP): 25.6531

## IRPKHF
MMP-2 [4]; [11]
  relative probability (RP): 19.1404
MMP-9 [1]; [12]
  relative probability (RP): 30.1694

## PGEI
MMP-2 [4]; [6]
  relative probability (RP) (acc.to MMP2): 14.72
MMP-2 [4]
  relative probability (RP) of matching tetramer: 14.72
MMP-2 [4]; [7]
  relative probability (RP) (acc.to MMP2): 14.72
MMP-9 [1]; [8]
  relative probability (RP) (acc.to MMP9): 12.83
MMP-9 [1]; [9]
  relative probability (RP): 12.83
MMP-9 [1]; [10]
  relative probability (RP) (acc.to MMP9): 12.83

## GPAGIR
MMP-2 [4]; [11]
  relative probability (RP): 33.3207
MMP-9 [1]; [12]
  relative probability (RP): 45.1083

## TPAAMT
MMP-2 [4]; [11]
  relative probability (RP): 33.3115
MMP-9 [1]; [12]
  relative probability (RP): 48.1518

## PYSI
MMP-2 [4]; [6]
  relative probability (RP) (acc.to MMP2): 23.85
MMP-2 [4]
  relative probability (RP) of matching tetramer: 23.85
MMP-9 [1]; [8]
  relative probability (RP) (acc.to MMP9): 45.53

## LRAV
MMP-2 [4]; [7]
  relative probability (RP) (acc.to MMP2): 11.96
MMP-9 [1]; [9]
  relative probability (RP): 11.9
MMP-9 [1]; [10]
  relative probability (RP) (acc.to MMP9): 11.9

## EVPQAL
MMP-2 [4]; [11]
  relative probability (RP): 34.4508
MMP-9 [1]; [12]
  relative probability (RP): 48.457

## PADF
MMP-2 [4]; [6]
  relative probability (RP) (acc.to MMP2): 20.44
MMP-2 [4]
  relative probability (RP) of matching tetramer: 20.44
MMP-9 [1]; [8]
  relative probability (RP) (acc.to MMP9): 12.85

## PRHR
MMP-2 [4]; [13]
  relative probability (RP) (acc.to MMP2): 0.04
MMP-9 [1]; [14]
  relative probability (RP) (acc.to MMP9): 0.35

## PKGYQG
MMP-2 [4]; [11]
  relative probability (RP): 30.7046
MMP-9 [1]; [12]
  relative probability (RP): 46.8538

## PRPL [P3-P1' tetramer cluster]
MMP-2 [4]; average relative probability of the P3-P1' tetramer
  avg_RP: 34.3303
MMP-9 [1]; tetramer projected onto MMP-9 cleavage sites determined by Prudova et al. (2010)
  relative probability (RP): 46.79

## PSKL
MMP-2 [4]; average relative probability (RP) of the P3-P1' tetramer
  avg_RP: 32.2205
MMP-2 [4]; [6]
  relative probability (RP) (acc.to MMP2): 32.22
MMP-2 [4]
  relative probability (RP) of matching tetramer: 32.22
MMP-2 [4]; [7]
  relative probability (RP) (acc.to MMP2): 32.22
MMP-9 [1]; [8]
  relative probability (RP) (acc.to MMP9): 38.96
MMP-9 [1]; [9]
  relative probability (RP): 38.96
MMP-9 [1]; [10]
  relative probability (RP) (acc.to MMP9): 38.96

## PDAL
MMP-2 [4]; [7]
  relative probability (RP) (acc.to MMP2): 7.73
MMP-9 [1]; [9]
  relative probability (RP): 29.54
MMP-9 [1]; [10]
  relative probability (RP) (acc.to MMP9): 29.54
